Where two headings read alike, the source gives them in different places.
Legend:
MAGL [1] = target: MAGL (Mus musculus (Mouse), UniProt O35678); assay: In vitro competitive activity-based protein profiling, mouse brain proteome; format: biochemical; details: for inhibition at 1 µM: mouse; for IC50: mouse brain
MAGL [2] = target: MAGL (Homo sapiens (Human), UniProt Q99685); assay: In vitro competitive activity-based protein profiling (gel-based, FP-Rh or HT-01 probe); format: biochemical
Description: In Vitro Competitive Activity-Based Protein Profiling.
Proteomes (human prefrontal cortex or cell membrane fractions) (50 μL, 1.0 mg/mL total protein concentration) were preincubated with varying concentrations of inhibitors at 37° C. After 30 min, FP-Rh or HT-01 (1.0 μL, 50 μM in DMSO) was added and the mixture was incubated for another 30 min at room temperature. Reactions were quenched with SDS loading buffer (15 μL—4×) and run on SDS-PAGE.

[3] = human PFC (prefrontal cortex), read-out: MAGL Human PFC (IC50)
[4] = human PFC (prefrontal cortex), read-out: MAGL % Inhibition at 1 μM (human PFC)
[5] = human PC3, read-out: MAGL % Inhibition at 1 μM (human PC3)
[6] = human PC3, read-out: MAGL Human PC3 (IC50)

Chain of MAGL (Mus musculus (Mouse), UniProt O35678) (O35678 whole entry): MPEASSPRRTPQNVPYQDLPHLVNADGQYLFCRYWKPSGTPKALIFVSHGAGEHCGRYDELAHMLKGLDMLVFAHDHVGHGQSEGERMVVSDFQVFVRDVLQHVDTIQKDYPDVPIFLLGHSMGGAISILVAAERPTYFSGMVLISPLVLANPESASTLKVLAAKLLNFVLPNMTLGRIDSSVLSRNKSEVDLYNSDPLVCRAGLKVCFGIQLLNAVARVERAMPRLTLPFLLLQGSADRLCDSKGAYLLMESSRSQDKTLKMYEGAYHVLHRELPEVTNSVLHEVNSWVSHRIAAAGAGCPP
Chain of MAGL (Homo sapiens (Human), UniProt Q99685) (Q99685 whole entry): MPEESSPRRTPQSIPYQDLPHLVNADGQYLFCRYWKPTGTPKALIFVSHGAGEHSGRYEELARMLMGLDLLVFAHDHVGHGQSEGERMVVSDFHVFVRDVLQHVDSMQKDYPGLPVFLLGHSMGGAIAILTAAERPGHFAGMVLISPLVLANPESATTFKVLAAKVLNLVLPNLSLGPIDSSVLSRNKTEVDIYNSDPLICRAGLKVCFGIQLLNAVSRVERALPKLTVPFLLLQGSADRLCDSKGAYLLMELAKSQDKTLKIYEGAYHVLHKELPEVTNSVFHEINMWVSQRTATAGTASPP

Compound | inhibition at 1 µM (MAGL [1]) [%] | IC50 (MAGL [1]) [µM] | IC50 (MAGL [2]; [3]) [µM] | inhibition at 1 µM (MAGL [2]; [4]) [%] | inhibition at 1 µM (MAGL [2]; [5]) [%] | IC50 (MAGL [2]; [6]) [µM]
O=C(OC(C(F)(F)F)C(F)(F)F)N1CCC2(CCCN2Cc2cc3cc(Cl)cc(Cl)c3[nH]2)CC1 [Example 110, 1,1,1,3,3,3-Hexafluoropropan-2-yl 1-((5,7-dichloro-1H-indol-2-yl)methyl)-1,8-diazaspiro[4.5] decane-8-carboxylate] | > 75 | < 0.1 | < 0.1 |  |  | 
O=C(OC(C(F)(F)F)C(F)(F)F)N1CCC2(CCCN2C(=O)c2cn3cc(C(F)(F)F)cc(Cl)c3n2)CC1 [Example 116, 1,1,1,3,3,3-Hexafluoropropan-2-yl 1-(8-chloro-6-(trifluoromethyl)imidazo[1,2-a]pyridine-2-carbonyl)-1,8-diazaspiro[4.5] decane-8-carboxylate] | > 75 |  |  | > 75 |  | 
O=C(OC(C(F)(F)F)C(F)(F)F)N1CCC2(CCCN2Cc2cc3cc(Cl)c(Cl)cc3[nH]2)CC1 [Example 112, 1,1,1,3,3.3-Hexafluoropropan-2-yl 1-((5,6-dichloro-1H-indol-2-yl)methyl)-1,8-diazaspiro[4.5] decane-8-carboxylate] | > 75 |  |  | > 75 |  | 
COc1cnc(C(F)(F)C(=O)N(C)C2(C)CCN(C(=O)OC(C(F)(F)F)C(F)(F)F)CC2)cn1 [Example 199, 1,1,1,3,3,3-Hexafluoropropan-2-yl 4-(2,2-difluoro-2-(5-methoxypyrazin-2-yl)-N-methylacetamido)-4-methylpiperidine-1-carboxylate] | > 75 |  | < 0.1 | > 75 | > 75 | 
O=C(O)CN1CCn2cc(C(=O)N3CCCC34CCN(C(=O)OC(C(F)(F)F)C(F)(F)F)CC4)nc2C1 [Example 158, 2-(2-(8-(((1,1,1,3,3,3-Hexafluoropropan-2-yl)oxy)carbonyl)-1,8-diazaspiro[4.5]decane-1-carbonyl)-5,6-dihydroimidazo[1,2-a]pyrazin-7(8H)-yl) acetic acid] | 25 to 75 |  |  | > 75 | > 75 | 
O=C(O)Cn1cc(CN2CCCC23CCN(C(=O)OC(C(F)(F)F)C(F)(F)F)CC3)c(-c2cccc(Cl)c2)n1 [Example 118, 2-(3-(3-Chlorophenyl)-4-((8-(((1,1,1,3,3,3-hexafluoropropan-2-yl)oxy)carbonyl)-1,8-diazaspiro[4.5]decan-1-yl)methyl)-1H-pyrazol-1-yl)acetic acid] | > 75 |  |  | > 75 |  | < 0.1
Cc1cccnc1C1(C(=O)N2CCCC23CCN(C(=O)OC(C(F)(F)F)C(F)(F)F)CC3)CC1 [Example 30, 1,1,1,3,3,3-Hexafluoropropan-2-yl 1-(1-(3-methylpyridin-2-yl)cyclopropane-1-carbonyl)-1,8-diazaspiro[4.5]decane-8-carboxylate] | > 75 |  |  | > 75 | > 75 | 
Cc1cc(Cl)c2nc(CN3CCCC34CCN(C(=O)OC(C(F)(F)F)C(F)(F)F)CC4)cn2c1 [Example 115, 1,1,1,3,3,3-Hexafluoropropan-2-yl 1-((8-chloro-6-methylimidazo [1,2-a]pyridin-2-yl)methyl)-1,8-diazaspiro[4.5] decane-8-carboxylate] | > 75 |  |  | > 75 |  | < 0.1
COCCN(C(=O)C1(c2ncccn2)CC1)C1(C)CCN(C(=O)OC(C(F)(F)F)C(F)(F)F)CC1 [Example 212, 1,1,1,3,3,3-hexafluoropropan-2-yl 4-(N-(2-methoxyethyl)-1-(pyrimidin-2-yl)cyclopropane-1-carboxamido)-4-methylpiperidine-1-carboxylate] | > 75 |  |  | > 75 | > 75 | 
Cc1cc(C)n2nc(C)c(C(=O)N3CCCC34CCN(C(=O)OC(C(F)(F)F)C(F)(F)F)CC4)c2n1 [Example 172, 1,1,1,3,3,3-Hexafluoropropan-2-yl 1-(2,5,7-trimethylpyrazolo [1,5-a]pyrimidine-3-carbonyl)-1,8-diazaspiro[4.5] decane-8-carboxylate] | > 75 |  |  | > 75 | > 75 | < 0.1
O=C(OC(C(F)(F)F)C(F)(F)F)N1CCC2(CCCN2C(=O)c2cnn3ccccc23)CC1 [Example 146, 1,1,1,3,3,3-Hexafluoropropan-2-yl 1-(pyrazolo[1,5-a]pyridine-3-carbonyl)-1,8-diazaspiro[4.5] decane-8-carboxylate] | > 75 |  |  | > 75 | > 75 | 
O=C(OC(C(F)(F)F)C(F)(F)F)N1CCC2(CCCN2Cc2cnc(N3CCNCC3)s2)CC1 [Example 4, 1,1,1,3,3,3-hexafluoropropan-2-yl 1-((2-(piperazin-1-yl)thiazol-5-yl)methyl)-1,8-diazaspiro[4.5]decane-8-carboxylate] | > 75 |  |  | > 75 |  | < 0.1
CCC(C)(C)C(=O)N1CCn2cc(C(=O)NC3(C)CCN(C(=O)OC(C(F)(F)F)C(F)(F)F)CC3)nc2C1 [Example 193, 1,1,1,3,3,3-Hexafluoropropan-2-yl 4-(7-(2,2-dimethylbutanoyl)-5,6,7,8-tetrahydroimidazo[1,2-a]pyrazine-2-carboxamido)-4-methylpiperidine-1-carboxylate] | > 75 |  |  |  | > 75 | < 0.1
O=C(OC(C(F)(F)F)C(F)(F)F)N1CCC2(CCCN2C(=O)C2(c3nccc(C(F)(F)F)n3)CC2)CC1 [Example 202, 1,1,1,3,3,3-Hexafluoropropan-2-yl 1-(1-(4-(trifluoromethyl)pyrimidin-2-yl)cyclopropane-1-carbonyl)-1,8-diazaspiro [4.5]decane-8-carboxylate] | > 75 |  |  | > 75 | > 75 | < 0.1
O=C(OC(C(F)(F)F)C(F)(F)F)N1CCC2(CCCN2C(=O)c2ccc3nccn3c2)CC1 [Example 85, 1,1,1,3,3,3-Hexafluoropropan-2-yl 1-(imidazo[1,2-a]pyridine-6-carbonyl)-1,8-diazaspiro[4.5] decane-8-carboxylate] | > 75 | 0.1 to 1 |  |  |  | < 0.1
COc1ncc(CN2CCCC23CCN(C(=O)OC(C(F)(F)F)C(F)(F)F)CC3)s1 [Example 138, 1,1,1,3,3,3-Hexafluoropropan-2-yl 1-((2-methoxythiazol-5-yl)methyl)-1,8-diazaspiro[4.5] decane-8-carboxylate] | > 75 |  |  | > 75 |  | < 0.1
Cc1ncncc1C(=O)N1CCCC12CCN(C(=O)OC(C(F)(F)F)C(F)(F)F)CC2 [Example 127, 1,1,1,3,3,3-Hexafluoropropan-2-yl 1-(4-methyl-pyrimidine-5-carbonyl)-1,8-diazaspiro[4.5] decane-8-carboxylate] | < 25 |  |  | 25 to 75 |  | 
CN1CCN(c2ncncc2C(=O)N2CCCC23CCN(C(=O)OC(C(F)(F)F)C(F)(F)F)CC3)CC1 [Example 136, 1,1,1,3,3,3-Hexafluoropropan-2-yl 1-(4-(4-methylpiperazin-1-yl)pyrimidine-5-carbonyl)-1,8-diazaspiro [4.5]decane-8-carboxylate] | < 25 |  |  | 25 to 75 |  | 
Cc1nc2ccccn2c1C(=O)N1CCCC12CCN(C(=O)OC(C(F)(F)F)C(F)(F)F)CC2 [Example 134, 1,1,1,3,3,3-Hexafluoropropan-2-yl 1-(2-methyl-imidazo[1,2-a]pyridine-3-carbonyl)-1,8-diazaspiro[4.5] decane-8-carboxylate] | > 75 |  |  | > 75 |  | < 0.1
CC(=O)N1CCn2cc(C(=O)N(C)C3(C)CCN(C(=O)OC(C(F)(F)F)C(F)(F)F)CC3)nc2C1 [Example 26, 1,1,1,3,3,3-Hexafluoropropan-2-yl 4-(7-acetyl-N-methyl-5,6,7,8-tetrahydroimidazo[1,2-a]pyrazine-2-carboxamido)-4-methylpiperidine-1-carboxylate] | 25 to 75 |  |  | > 75 | > 75 | 
O=C(OC(C(F)(F)F)C(F)(F)F)N1CCC2(CCCN2C(=O)c2c(C(F)(F)F)nc3n2CCCC3)CC1 [Example 139, 1,1,1,3,3,3-Hexafluoropropan-2-yl 1-(2-(trifluoromethyl)-5,6,7,8-tetrahydroimidazo [1,2-a]pyridine-3-carbonyl)-1,8-diazaspiro[4.5] decane-8-carboxylate] | > 75 |  |  | > 75 |  | < 0.1
O=C(OC(C(F)(F)F)C(F)(F)F)N1CCC2(CCCN2C(=O)c2ccn(Cc3ccccc3)n2)CC1 [Example 91, 1,1,1,3,3,3-Hexafluoropropan-2-yl 1-(1-benzyl-1H-pyrazole-3-carbonyl)-1,8-diazaspiro[4.5] decane-8-carboxylate] | > 75 | < 0.1 |  |  |  | < 0.1
O=C(OC(C(F)(F)F)C(F)(F)F)N1CCC2(CCCN2C(=O)C(F)(F)c2ncc(F)cn2)CC1 [Example 196, 1,1,1,3,3,3-Hexafluoropropan-2-yl 1-(2,2-difluoro-2-(5-fluoropyrimidin-2-yl)acetyl)-1,8-diazaspiro [4.5]decane-8-carboxylate] | > 75 |  |  | > 75 | > 75 | 
Cn1cc(Cl)c(CN2CCCC23CCN(C(=O)OC(C(F)(F)F)C(F)(F)F)CC3)n1 [Example 133, 1,1,1,3,3.3-Hexafluoropropan-2-yl 1-((4-chloro-1-methyl-1H-pyrazol-3-yl)methyl)-1,8-diazaspiro[4.5] decane-8-carboxylate] | > 75 |  |  | > 75 |  | < 0.1
